# Data as given in PubChem BioAssay (NCI).
#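 Growth conditions: 96-well plates. Treatment: test compound, 48 hours, 5 concentrations. Analysis: linear interpolation between bracketing concentrations; unreached endpoints set to highest concentration. GI50: concentration for 50% inhibition of growth. TGI: concentration producing complete growth inhibition.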 Where a SMILES comes first, the peptide text is derived from it.
# Columns and labels:
# Assay in all cases: NCI tumour cell line growth inhibition, 48 h
# UACC-257 melanoma = system: UACC-257 melanoma
# SNB-19 CNS = system: SNB-19 CNS
# A549 NSCLC = system: A549 NSCLC
# SK-MEL-2 melanoma = system: SK-MEL-2 melanoma
# MDA-MB-435 = system: MDA-MB-435
# SF-295 CNS = system: SF-295 CNS
# OVCAR-4 ovarian = system: OVCAR-4 ovarian
# NCI/ADR-RES ovarian = system: NCI/ADR-RES ovarian
# NCI-H23 lung = system: NCI-H23 lung
# NCI-H460 lung = system: NCI-H460 lung
Structure (SMILES),TGI (UACC-257 melanoma),TGI (SNB-19 CNS),TGI (A549 NSCLC),TGI (SK-MEL-2 melanoma),TGI (MDA-MB-435),TGI (SF-295 CNS),TGI (OVCAR-4 ovarian),TGI (NCI/ADR-RES ovarian),TGI (NCI-H23 lung),TGI (NCI-H460 lung),GI50 (A549 NSCLC),GI50 (SK-MEL-2 melanoma),GI50 (NCI/ADR-RES ovarian),GI50 (UACC-257 melanoma),GI50 (SNB-19 CNS),GI50 (MDA-MB-435),GI50 (SF-295 CNS),GI50 (OVCAR-4 ovarian),GI50 (NCI-H23 lung),GI50 (NCI-H460 lung)
NC(CCOCCP(=O)(O)CCC1C=CC=CC1)C(=O)O (stereo not drawn),> 100 µM,> 100 µM,> 100 µM,> 100 µM,> 100 µM,> 100 µM,> 100 µM,> 100 µM,> 100 µM,> 100 µM,–,–,–,–,–,–,–,–,–,–
CC[C@@]1(O)C(=O)OCc2c1cc1n(c2=O)Cc2cc3ccccc3nc2-1,0.592 µM,> 30.9 µM,2.51 µM,1.22 µM,0.285 µM,0.0698 µM,2.21 µM,0.125 µM,0.0928 µM,0.158 µM,15.7 nM,340 nM,< 14.3 nM,–,–,–,–,–,–,–
C[Si](C)(C)c1ccc(-c2c3ccc(-c4cc(Br)cc(Br)c4)nc3nc3nc(-c4cc(Br)cc(Br)c4)ccc23)cc1,> 100 µM,> 100 µM,> 100 µM,> 100 µM,> 100 µM,> 100 µM,> 100 µM,> 100 µM,> 100 µM,> 100 µM,–,–,–,–,–,–,–,–,–,–
O=C1c2cccnc2C(=O)c2c1c(C(=O)OCCN1CCCCC1)c1ccccn21,0.395 µM,0.498 µM,–,0.224 µM,0.829 µM,0.2 µM,2.3 µM,1.07 µM,0.0291 µM,0.0128 µM,–,90.9 nM,33.1 nM,87.8 nM,13 nM,80.4 nM,31.1 nM,655 nM,5.7 nM,5 nM
Nc1ccc(O)c2c1C(=O)c1c(N)ccc(O)c1C2=O,> 100 µM,> 100 µM,> 100 µM,> 100 µM,–,> 100 µM,> 100 µM,–,> 100 µM,> 100 µM,–,–,–,–,–,–,–,–,–,–
NC(=O)C1CCCN1C(=O)C(N)Cc1ccccc1 (stereo not drawn) (H-Phe-Pro-NH2; configuration not given here),–,> 100 µM,> 100 µM,–,> 100 µM,> 100 µM,> 100 µM,> 100 µM,–,> 100 µM,–,–,–,–,–,–,–,–,–,–
CN(CC(=O)O)Cc1c(O)c(Cl)cc(Cl)c1Cl,97.5 µM,> 100 µM,> 100 µM,> 100 µM,> 100 µM,> 100 µM,> 100 µM,> 100 µM,> 100 µM,75.4 µM,–,–,–,–,–,–,–,–,–,–
CC1C(=O)CC(c2cccs2)N(N=O)C1c1cccs1 (stereo not drawn),> 100 µM,> 100 µM,> 100 µM,> 92.3 µM,–,> 100 µM,> 100 µM,> 100 µM,> 100 µM,> 100 µM,–,–,–,–,–,–,–,–,–,–
CCc1n[nH]c(=O)n1/N=C(\C)c1ccc([N+](=O)[O-])cc1,> 100 µM,> 100 µM,> 100 µM,> 100 µM,> 100 µM,> 100 µM,> 100 µM,> 100 µM,> 100 µM,> 100 µM,–,–,–,–,–,–,–,–,–,–
COc1ccc(NC(C)=O)cc1N1C(=O)/C(=C\c2ccccc2)SC1c1cc(OC)c(OC)c(OC)c1 (stereo not drawn),> 100 µM,> 100 µM,> 100 µM,> 100 µM,> 100 µM,> 100 µM,–,41 µM,> 100 µM,44.5 µM,–,–,–,–,–,–,–,–,–,–
Clc1cc(Cl)c2cc3cccc[n+]3cc2c1Cl,28.9 µM,28.7 µM,34.1 µM,30.1 µM,32.7 µM,39.8 µM,30.2 µM,33.2 µM,30.4 µM,32.2 µM,–,–,–,–,–,–,–,–,–,–
OC[C@H]1NC[C@@H](O)[C@@H](O)[C@H]1O,> 100 µM,> 100 µM,–,> 100 µM,> 100 µM,> 100 µM,> 100 µM,> 100 µM,> 100 µM,> 100 µM,–,–,–,–,–,–,–,–,–,–
COc1ccc(-c2nc3c(nc2-c2ccc(OC)cc2)C(N)=NS(=O)(=O)N3)cc1,> 100 µM,> 100 µM,> 100 µM,> 100 µM,–,> 100 µM,–,–,> 100 µM,–,–,–,–,–,–,–,–,–,–,–
CSc1nc(CO)c(CO)n1C,> 100 µM,> 100 µM,> 100 µM,> 100 µM,–,> 100 µM,> 100 µM,> 100 µM,> 100 µM,> 100 µM,–,–,–,–,–,–,–,–,–,–
CCOC(=O)Cn1c2ccc(Br)cc2c2nc3ccccc3nc21,> 100 µM,> 100 µM,> 100 µM,> 100 µM,> 100 µM,> 100 µM,–,> 100 µM,> 100 µM,–,–,–,–,–,–,–,–,–,–,–
O=C(NC(Cc1ccc(Br)cc1)C(=O)O)c1ccc(I)cc1 (stereo not drawn),> 100 µM,> 100 µM,> 100 µM,> 100 µM,–,> 100 µM,> 100 µM,> 100 µM,> 100 µM,> 100 µM,–,–,–,–,–,–,–,–,–,–
CCN1c2cc(Br)cc3[nH]c(=O)n(c23)CCC1C (stereo not drawn),40.6 µM,> 100 µM,35.1 µM,31.8 µM,16.8 µM,39.6 µM,65.2 µM,23 µM,53.2 µM,35.9 µM,–,–,–,–,–,–,–,–,–,–
CC(=O)Nc1cccc(N2C(=O)/C(=C\c3cccc(Oc4ccccc4)c3)S(=O)(=O)C2c2ccccc2)c1 (stereo not drawn),> 100 µM,> 100 µM,> 100 µM,> 100 µM,> 100 µM,> 100 µM,> 100 µM,> 100 µM,> 100 µM,> 100 µM,–,–,–,–,–,–,–,–,–,–
CN(Cc1cn(O)c2nc(=N)nc(N)c-2n1)c1ccc(C(=O)NC23CC4CC(CC(C4)C2)C3)cc1,> 100 µM,> 100 µM,–,> 100 µM,> 100 µM,> 100 µM,–,> 100 µM,> 100 µM,> 100 µM,–,–,–,–,–,–,–,–,–,–
